Results as given in US8722727B2, “Antifungal agents” (Seynix, Inc., priority 2008, dated 2014).

Each molecule was assayed against T1, glucan synthase (GS) (Candida albicans, UniProt O13428) (assay: Glucan synthase inhibition (polymerization assay, 96-well)). Settings: glucan synthase prepared from Candida albicans MY1055; 60 min incubation at 22° C.; read-out: Candida Albicans GS IC50 (ng/mL) (converted).
T1 construct: Extraction of GS activity from membranes was performed at a protein concentration of 5 mg/mL in extraction buffer; endogenous in cells; host or cells: Candida albicans MY1055 (membrane fraction, detergent extraction, product entrapment)
Format: biochemical
Outline: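 Partially purified membrane glucan synthase from C. albicans MY1055, 60 min at 22° C with 0.5 mM 3H-UDPG, 25 μM GTP-γ-S, pH 7.5 HEPES, 25 mM KF. TCA-precipitated glucan filtered and scintillation counted; IC50 (ng/mL) from sigmoidal fit of duplicates over 3-fold dilutions.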

T1 sequence (O13428 1-1897): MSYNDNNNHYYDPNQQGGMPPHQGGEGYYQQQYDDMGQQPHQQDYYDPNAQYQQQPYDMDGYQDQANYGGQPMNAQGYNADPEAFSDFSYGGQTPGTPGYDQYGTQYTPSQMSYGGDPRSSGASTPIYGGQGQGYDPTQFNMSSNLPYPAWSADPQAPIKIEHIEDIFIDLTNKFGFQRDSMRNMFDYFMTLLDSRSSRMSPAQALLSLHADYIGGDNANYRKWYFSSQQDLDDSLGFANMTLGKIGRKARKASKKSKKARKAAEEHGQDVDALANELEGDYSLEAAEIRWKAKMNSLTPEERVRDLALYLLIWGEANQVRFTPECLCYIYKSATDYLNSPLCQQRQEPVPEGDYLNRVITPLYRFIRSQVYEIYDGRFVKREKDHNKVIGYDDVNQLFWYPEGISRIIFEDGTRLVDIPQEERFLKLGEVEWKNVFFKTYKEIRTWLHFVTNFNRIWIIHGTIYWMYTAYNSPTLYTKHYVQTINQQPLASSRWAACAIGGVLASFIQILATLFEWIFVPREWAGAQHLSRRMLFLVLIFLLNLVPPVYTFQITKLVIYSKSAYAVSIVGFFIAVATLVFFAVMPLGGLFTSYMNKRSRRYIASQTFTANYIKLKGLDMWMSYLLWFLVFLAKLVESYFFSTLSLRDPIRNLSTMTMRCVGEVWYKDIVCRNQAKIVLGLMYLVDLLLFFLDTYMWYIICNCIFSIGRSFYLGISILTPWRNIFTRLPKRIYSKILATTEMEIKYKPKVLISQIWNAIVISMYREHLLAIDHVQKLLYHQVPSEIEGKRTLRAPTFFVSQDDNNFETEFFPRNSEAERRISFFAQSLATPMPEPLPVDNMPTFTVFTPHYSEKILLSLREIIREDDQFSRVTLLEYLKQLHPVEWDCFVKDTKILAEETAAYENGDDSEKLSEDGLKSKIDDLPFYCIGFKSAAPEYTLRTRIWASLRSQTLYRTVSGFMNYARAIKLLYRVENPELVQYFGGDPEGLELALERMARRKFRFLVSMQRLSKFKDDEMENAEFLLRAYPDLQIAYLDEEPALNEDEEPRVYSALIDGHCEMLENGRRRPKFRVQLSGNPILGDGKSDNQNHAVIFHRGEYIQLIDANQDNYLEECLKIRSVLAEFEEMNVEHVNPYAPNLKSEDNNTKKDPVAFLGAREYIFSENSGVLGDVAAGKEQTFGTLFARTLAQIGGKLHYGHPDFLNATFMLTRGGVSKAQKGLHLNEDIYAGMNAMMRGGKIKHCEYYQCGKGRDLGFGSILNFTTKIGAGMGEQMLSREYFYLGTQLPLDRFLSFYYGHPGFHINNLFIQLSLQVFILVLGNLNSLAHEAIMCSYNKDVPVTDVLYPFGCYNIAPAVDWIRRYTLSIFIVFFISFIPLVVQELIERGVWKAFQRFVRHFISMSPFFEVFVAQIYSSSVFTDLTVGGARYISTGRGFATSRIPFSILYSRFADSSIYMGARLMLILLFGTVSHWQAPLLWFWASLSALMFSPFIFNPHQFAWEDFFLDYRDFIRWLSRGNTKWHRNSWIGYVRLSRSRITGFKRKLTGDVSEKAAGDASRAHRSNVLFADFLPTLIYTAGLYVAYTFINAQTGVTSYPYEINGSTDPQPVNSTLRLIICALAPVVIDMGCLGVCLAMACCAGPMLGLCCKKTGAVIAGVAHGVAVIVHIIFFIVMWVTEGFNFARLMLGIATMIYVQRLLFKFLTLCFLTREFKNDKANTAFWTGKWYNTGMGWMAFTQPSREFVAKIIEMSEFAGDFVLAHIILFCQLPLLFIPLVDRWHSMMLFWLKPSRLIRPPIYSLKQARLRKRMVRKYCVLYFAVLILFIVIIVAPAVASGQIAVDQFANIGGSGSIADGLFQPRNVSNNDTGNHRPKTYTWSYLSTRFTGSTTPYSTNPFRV
T1 sequence (O42825 1-195 partner limits assumed): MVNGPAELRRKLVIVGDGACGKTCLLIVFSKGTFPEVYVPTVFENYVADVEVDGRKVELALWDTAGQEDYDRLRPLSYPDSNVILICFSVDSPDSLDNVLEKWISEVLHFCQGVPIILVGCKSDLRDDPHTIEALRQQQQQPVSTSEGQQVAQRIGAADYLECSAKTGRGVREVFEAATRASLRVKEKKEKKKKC

Going from `CC(C)[C@@H](C)[C@@]1(C)CC[C@]2(C)[C@H]3CC[C@@H]4[C@@]5(COC[C@@]4(C)[C@@H](OC[C@@H](C(C)C)N(C)C)[C@H](n4nnc(N)n4)C5)C3=CC[C@@]2(C)[C@@H]1C(=O)O` [Example 80, (1S,4aR,6aS,7R,8R,10aR,10bR,12aR,14R,15R)-14-(5-amino-2H-tetrazol-2-yl)-15-[[(2R)-2-(dimethylamino)-3-methylbutyl]oxy]-8-[(1R)-1,2-dimethylpropyl]-1,6,6a,7,8,9,10,10a,10b,11,12,12a-dodecahydro-1,6a,8,10a-tetramethyl-4H-1,4a-propano-2H-phenanthro[1,2-c]pyran-7-carboxylic acid] to `CC[C@H](C)[C@@H](CO[C@H]1[C@H](n2nnc(N)n2)C[C@@]23COC[C@]1(C)[C@@H]2CC[C@H]1C3=CC[C@@]2(C)[C@H](C(=O)O)[C@@](C)([C@H](C)C(C)C)CC[C@]12C)N(C)C` [Example 101, (1S,4aR,6aS,7R,8R,10aR,10bR,12aR,14R,15R)-14-(5-amino-2H-tetrazol-2-yl)-15-[[(2S,3S)-2-(dimethylamino)-3-methylpentyl]oxy]-8-[(1R)-1,2-dimethylpropyl]-1,6,6a,7,8,9,10,10a,10b,11,12,12a-dodecahydro-1,6a,8,10a-tetramethyl-4H-1,4a-propano-2H-phenanthro[1,2-c]pyran-7-carboxylic acid], the IC50 rises from 5.98 nM to 11.7 nM (2-fold).

`CC(C)[C@@H](C)[C@@]1(C)CC[C@]2(C)[C@H]3CC[C@@H]4[C@@]5(COC[C@@]4(C)[C@@H](OC[C@@H](C4CC4)N(C)C)[C@H](n4nnc(N)n4)C5)C3=CC[C@@]2(C)[C@@H]1C(=O)O` [Example 83, (1S,4aR,6aS,7R,8R,10aR,10bR,12aR,14R,15R)-14-(5-amino-2H-tetrazol-2-yl)-15-[(2R)-2-cyclopropyl-2-(dimethylamino)ethoxy]-8-[(1R)-1,2-dimethylpropyl]-1,6,6a,7,8,9,10,10a,10b,11,12,12a-dodecahydro-1,6a,8,10a-tetramethyl-4H-1,4a-propano-2H-phenanthro[1,2-c]pyran-7-carboxylic acid] and `CC(C)[C@@H](C)[C@@]1(C)CC[C@]2(C)[C@H]3CC[C@@H]4[C@@]5(COC[C@@]4(C)[C@@H](OCCN(C)C)[C@H](n4nnc(N)n4)C5)C3=CC[C@@]2(C)[C@@H]1C(=O)O` [Example 114, (1S,4aR,6aS,7R,8R,10aR,10bR,12aR,14R,15R)-14-(5-amino-2H-tetrazol-2-yl)-15-[2-(dimethylamino)ethoxy]-8-[(1R)-1,2-dimethylpropyl]-1,6,6a,7,8,9,10,10a,10b,11,12,12a-dodecahydro-1,6a,8,10a-tetramethyl-4H-1,4a-propano-2H-phenanthro[1,2-c]pyran-7-carboxylic acid] are within 1.5-fold of each other in IC50: 16.5 nM for the first, 19.1 nM for the second.

Going from `CC(C)[C@@H](C)[C@@]1(C)CC[C@]2(C)[C@H]3CC[C@@H]4[C@@]5(COC[C@@]4(C)[C@@H](OC[C@H](N)c4ccccc4)[C@H](n4nnc(N)n4)C5)C3=CC[C@@]2(C)[C@@H]1C(=O)O` [Example 88, (1S,4aR,6aS,7R,8R,10aR,10bR,12aR,14R,15R)-14-(5-amino-2H-tetrazol-2-yl)-15-[(2R)-2-amino-2-phenylethoxy]-8-[(1R)-1,2-dimethylpropyl]-1,6,6a,7,8,9,10,10a,10b,11,12,12a-dodecahydro-1,6a,8,10a-tetramethyl-4H-1,4a-propano-2H-phenanthro[1,2-c]pyran-7-carboxylic acid] to `CC(C)[C@H](N)CO[C@H]1[C@H](n2nnc(N)n2)C[C@@]23COC[C@]1(C)[C@@H]2CC[C@H]1C3=CC[C@@]2(C)[C@H](C(=O)O)[C@@](C)([C@H](C)C(C)C)CC[C@]12C` [Example 93, (1S,4aR,6aS,7R,8R,10aR,10bR,12aR,14R,15R)-14-(5-amino-2H-tetrazol-2-yl)-15-[[(2S)-2-amino-3-methylbutyl]oxy]-8-[(1R)-1,2-dimethylpropyl]-1,6,6a,7,8,9,10,10a,10b,11,12,12a-dodecahydro-1,6a,8,10a-tetramethyl-4H-1,4a-propano-2H-phenanthro[1,2-c]pyran-7-carboxylic acid], the IC50 falls from 26.7 nM to 9.36 nM (2.9-fold).

Going from `CCN[C@H](CO[C@H]1[C@H](n2nnc(N)n2)C[C@@]23COC[C@]1(C)[C@@H]2CC[C@H]1C3=CC[C@@]2(C)[C@H](C(=O)O)[C@@](C)([C@H](C)C(C)C)CC[C@]12C)C(C)(C)C` [Example 97, (1S,4aR,6aS,7R,8R,10aR,10bR,12aR,14R,15R)-14-(5-amino-2H-tetrazol-2-yl)-15-[[(2S)-2-(ethylamino)-3,3-dimethylbutyl]oxy]-8-[(1R)-1,2-dimethylpropyl]-1,6,6a,7,8,9,10,10a,10b,11,12,12a-dodecahydro-1,6a,8,10a-tetramethyl-4H-1,4a-propano-2H-phenanthro[1,2-c]pyran-7-carboxylic acid] to `CN[C@](C)(CO[C@H]1[C@H](n2nnc(N)n2)C[C@@]23COC[C@]1(C)[C@@H]2CC[C@H]1C3=CC[C@@]2(C)[C@H](C(=O)O)[C@@](C)([C@H](C)C(C)C)CC[C@]12C)C(C)(C)C` [Example 112, (1S,4aR,6aS,7R,8R,10aR,10bR,12aR,14R,15R)-14-(5-amino-2H-tetrazol-2-yl)-8-[(1R)-1,2-dimethylpropyl]-15-[[(2S)-2,3,3-trimethyl-2-(methylamino)butyl]oxy]-1,6,6a,7,8,9,10,10a,10b,11,12,12a-dodecahydro-1,6a,8,10a-tetramethyl-4H-1,4a-propano-2H-phenanthro[1,2-c]pyran-7-carboxylic acid], the IC50 falls from 13.2 nM to 8.78 nM (1.5-fold).

Going from `CC(C)[C@@H](C)[C@@]1(C)CC[C@]2(C)[C@H]3CC[C@@H]4[C@@]5(COC[C@@]4(C)[C@@H](OCCN)[C@H](n4cnnn4)C5)C3=CC[C@@]2(C)[C@@H]1C(=O)O` [Example 104, (1S,4aR,6aS,7R,8R,10aR,10bR,12aR,14R,15R)-15-(2-aminoethoxy)-8-[(1R)-1,2-dimethylpropyl]-14-(1H-tetrazol-1-yl)-1,6,6a,7,8,9,10,10a,10b,11,12,12a-dodecahydro-1,6a,8,10a-tetramethyl-4H-1,4a-propano-2H-phenanthro[1,2-c]pyran-7-carboxylic acid] to `CCNC(C)(COC1C(n2ncnn2)CC23COCC1(C)C2CCC1C3=CCC2(C)C(C(=O)O)C(C)(C(C)C(C)C)CCC12C)C(C)C` [Example 109, (1S,4aR,6aS,7R,8R,10aR,10bR,12aR,14R,15R)-8-[(1R)-1,2-dimethylpropyl]-15-[[(25)-2-(ethylamino)-2,3-dimethylbutyl]oxy]-14-(2H-tetrazol-2-yl)-1,6,6a,7,8,9,10,10a,10b,11,12,12a-dodecahydro-1,6a,8,10a-tetramethyl-4H-1,4a-propano-2H-phenanthro[1,2-c]pyran-7-carboxylic acid], the IC50 falls from 118 nM to 46.4 nM (2.5-fold).

In the case of `CCCCCC(C)(CO[C@H]1[C@H](n2nnc(N)n2)C[C@@]23COC[C@]1(C)[C@@H]2CC[C@H]1C3=CC[C@@]2(C)[C@H](C(=O)O)[C@@](C)([C@H](C)C(C)C)CC[C@]12C)NCCC` (stereo partly drawn) [Example 120, (1S,4aR,6aS,7R,8R,10aR,10bR,12aR,14R,15R)-14-(5-amino-2H-tetrazol-2-yl)-8-[(1R)-1,2-dimethylpropyl]-15-[[2-methyl-2-(propylamino)heptyl]oxy]-1,6,6a,7,8,9,10,10a,10b,11,12,12a-dodecahydro-1,6a,8,10a-tetramethyl-4H-1,4a-propano-2H-phenanthro[1,2-c]pyran-7-carboxylic acid], the IC50 is reported as 60.7 nM.
